Reference: the supplement of paper PMC11208160

Assay: recombinant barcode read abundance after kanamycin selection (control-corrected) (log10(CPM+1)); higher = more efficient recombination; sequences stand for … in AGTGCAGAGAAAATCGGCCAGTTTTCTCTGCCTGCAGTCCGCATGCCGT…AGATTTATGCAGCGGACTGCCTTTCTCCCAAAGTGATAAACCGGACAGTATCATGGACCGGTTTTCCCGGTAATCCGTATTTGCAAGGTTGGTTTCACT; site = the 11-nt target
Description: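 Pooled E. coli target-specificity screen for the IS621 bridge recombinase. Each library plasmid pairs an 11-nt target (CT core) with a bridge RNA whose target-binding loop (9-nt LTG + 4-nt RTG) is reprogrammed; the rest of the 177-nt WT IS621 bridge RNA scaffold is fixed. The plasmid is co-electroporated with a WT donor plasmid; recombinase is induced with 0.1 mM IPTG and recombinants are selected on kanamycin. Recombinant barcodes are sequenced, converted to CPM, averaged over two biological replicates and corrected by the unselected control CPM. Molecule = full bridge RNA written as DNA: LTG = specificity nt 1-9, RTG = reverse complement of specificity nt 8-11, in the WT scaffold.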
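Also: IS621 recombinase and bridge RNA in Escherichia coli cells.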

| Sequence | recombinant barcode read abundance (log10) |
| --- | --- |
| CGGGAAGCTTGGGTTCTAACCTGTTGCCT (site CGGGGAGCTCG) | 0.287 |
| ATGGGCCCTTGGGTTCTAACCTGTTGCTA (site ATGGGCCCTCA) | 1.17 |
| TAGAAGACTTGGGTTCTAACCTGTTGCTA (site TAGAAGACTTA) | 1.55 |
| TAGCCGACTTGGGTTCTAACCTGTTGCCT (site TAGCAGACTAG) | 0.181 |
| CACGCCTCTTGGGTTCTAACCTGTTGCCT (site TACGCCTCTAG) | 0.0712 |
| CGCCCTCCTTGGGTTCTAACCTGTTGCAT (site CGCCCTCCTAT) | 0.362 |
| ACAGTAGCTTGGGTTCTAACCTGTTGCTG (site ACAATAGCTCA) | 0.181 |
| AGTAAGACTTGGGTTCTAACCTGTTGCTA (site AGTAAGACTTA) | 1.23 |
| ACGCGAGCTTGGGTTCTAACCTGTTGCGG (site ACGCGAGCTCA) | 0.066 |
| CCAAGGGCTTGGGTTCTAACCTGTTGCTG (site CCAAGGGCTCA) | 1.31 |
| CTCTAACCTTGGGTTCTAACCTGTTGCGT (site CTCTATCCTAC) | 0.0249 |
| CGGAACCCTTGGGTTCTAACCTGTTGCCG (site CGGAACCCTCG) | 1.22 |
| TATTGTCCTTGGGTTCTAACCTGTTGCCT (site TATAGTACTAG) | 0.0216 |
| ATTTCTTCTTGGGTTCTAACCTGTTGCCT (site ATATCTTCTAG) | 0.113 |
| TCCAACACTTGGGTTCTAACCTGTTGCCG (site TCCAACACTCG) | 0.574 |
| GACACAACTTGGGTTCTAACCTGTTGCCA (site GACACAACTTG) | 0.018 |
| ATATACTCTTGGGTTCTAACCTGTTGCCG (site ATATACTCTCG) | 2.38 |
| GTGTCAGCTTGGGTTCTAACCTGTTGCCT (site GTGTCATCTAG) | 0.02 |
| CTGGCAGCTTGGGTTCTAACCTGTTGCCT (site CTGGCAGCTAG) | 0.445 |
| TAGAAGGCTTGGGTTCTAACCTGTTGCAT (site TAGAAGGCTAA) | 0.162 |
| GCACGCTCTTGGGTTCTAACCTGTTGCCT (site GCACGCTCTAG) | 1.55 |

| Sequence | recombinant barcode read abundance (log10) |
| --- | --- |
| ACCGGGACTTGGGTTCTAACCTGTTGCCT (site ACCGCGACTAG) | 0.159 |
| CTCTTCACTTGGGTTCTAACCTGTTGCCG (site CTCTTCGCTAG) | 0.0289 |
| CTACTAGCTTGGGTTCTAACCTGTTGCAC (site CTACTAGCTGT) | 1.66 |
| GGCTATGCTTGGGTTCTAACCTGTTGCCT (site GCCTATGCTAG) | 0.106 |
| GTTTATACTTGGGTTCTAACCTGTTGCCA (site GTTTATACTTG) | 0.41 |
| CCTAAGACTTGGGTTCTAACCTGTTGCCG (site CCTAAGACTTG) | 0.0897 |
| ACGACTCCTTGGGTTCTAACCTGTTGCCT (site ACGACTGCTAG) | 0.117 |
| TTGCTAACTTGGGTTCTAACCTGTTGCCT (site TTGCCAACTAG) | 0.0109 |
| TAGCATACTTGGGTTCTAACCTGTTGCCG (site TAGCATACTGG) | 0.06 |
| CTCGTGACTTGGGTTCTAACCTGTTGCCT (site CTCGTGACTAG) | 1.13 |
| TATTCTCCTTGGGTTCTAACCTGTTGCAT (site TATTCTCCTAC) | 0.235 |
| CGCGTTGCTTGGGTTCTAACCTGTTGCCT (site AAGCCCACTCC) | 0.0136 |
| AGGATACCTTGGGTTCTAACCTGTTGCCT (site AGGATAACTAG) | 0.219 |
| GTCGCCTCTTGGGTTCTAACCTGTTGCCT (site GTCTCCTCTAG) | 0.0886 |
| GCTTGGACTTGGGTTCTAACCTGTTGCAG (site GCTTGGACTCT) | 1.72 |
| ACATGAACTTGGGTTCTAACCTGTTGCAT (site ACATGGACTAT) | 0.141 |
| TCAGATTCTTGGGTTCTAACCTGTTGCCT (site TCACATTCTAG) | 0.0298 |
| CCAAGCCCTTGGGTTCTAACCTGTTGCCT (site CCAAGCGCTAG) | 0.0593 |
| ATATGAGCTTGGGTTCTAACCTGTTGCCG (site ATATGCGCTCG) | 0.175 |
| AATGCATCTTGGGTTCTAACCTGTTGCCT (site AATGCATCTAG) | 0.285 |
| GCCAGGGCTTGGGTTCTAACCTGTTGCCG (site GCCCGGGCTCG) | 0.264 |

| Sequence | recombinant barcode read abundance (log10) |
| --- | --- |
| TTCTGGGCTTGGGTTCTAACCTGTTGCCT (site TTCTGTGCTAG) | 0.137 |
| CTATTCGCTTGGGTTCTAACCTGTTGCCT (site CTATTCCCTAG) | 0.0147 |
| TCCATCCCTTGGGTTCTAACCTGTTGCTA (site TCCAGTCCTTA) | 0.0637 |
| TAGTAAGCTTGGGTTCTAACCTGTTGCTG (site TAGTAAGCTCA) | 0.921 |
| TATGTAGCTTGGGTTCTAACCTGTTGCCG (site TATGTAGCTAG) | 0.486 |
| CAATAGACTTGGGTTCTAACCTGTTGCCT (site TGCACCTCTTA) | 0.0564 |
| ACATGAACTTGGGTTCTAACCTGTTGCAT (site ACATGTACTAT) | 0.0493 |
| AGTAAGTCTTGGGTTCTAACCTGTTGCCT (site ACTAAGTCTAG) | 0.186 |
| TCGTATACTTGGGTTCTAACCTGTTGCGG (site TCGTATACTCC) | 0.396 |
| GATCACCCTTGGGTTCTAACCTGTTGCAT (site GATCACCCTAT) | 1.68 |
| GAAGGGACTTGGGTTCTAACCTGTTGCCT (site GGAGGGACTAG) | 0.585 |
| GTCCGCTCTTGGGTTCTAACCTGTTGCCT (site ATCCGCTCTAG) | 1.4 |
| TGTGCCTCTTGGGTTCTAACCTGTTGCCT (site TGTGCCTCTAG) | 0.564 |
| GGTGGCCCTTGGGTTCTAACCTGTTGCCT (site GATGGCCCTAG) | 0.108 |
| TCGTGCCCTTGGGTTCTAACCTGTTGCCT (site TCGTGCCCTAG) | 0.398 |
| TAGAAGACTTGGGTTCTAACCTGTTGCTG (site TAGAAGACTCA) | 2.38 |
| TCCAACCCTTGGGTTCTAACCTGTTGCCA (site GCCAACCCTTA) | 0.0929 |
| AGTCATACTTGGGTTCTAACCTGTTGCAT (site AGTCATACTAT) | 0.356 |
| GCCCAGCCTTGGGTTCTAACCTGTTGCGG (site ACCAAGCCTCC) | 0.0607 |
| CTATAGACTTGGGTTCTAACCTGTTGCCT (site CTATTGACTAG) | 0.317 |
| TTCTGCGCTTGGGTTCTAACCTGTTGCCT (site TTCTGTGCTAG) | 0.191 |

| Sequence | recombinant barcode read abundance (log10) |
| --- | --- |
| CAATAGACTTGGGTTCTAACCTGTTGCCT (site CAATAGACTAG) | 1.19 |
| AGATAGCCTTGGGTTCTAACCTGTTGCCT (site GGATAGCCTAG) | 0.157 |
| TCCGTGACTTGGGTTCTAACCTGTTGCCT (site TCCGTGTCTAG) | 0.352 |
| CACTTAACTTGGGTTCTAACCTGTTGCCT (site CACTTACCTAG) | 0 |
| TAGTACTCTTGGGTTCTAACCTGTTGCTA (site TAGTACTCTAA) | 0.0398 |
| CTCGTCACTTGGGTTCTAACCTGTTGCCT (site CTCGTGACTAG) | 0.0882 |
| GATACGCCTTGGGTTCTAACCTGTTGCCT (site GATACGACTAG) | 0.0197 |
| AAGAGAGCTTGGGTTCTAACCTGTTGCCT (site AAGATAGCTAG) | 0.0307 |
| CAGGGCCCTTGGGTTCTAACCTGTTGCCT (site AAGGGCCCTAG) | 0.329 |
| AGATAGCCTTGGGTTCTAACCTGTTGCCT (site AGATAGCCTAG) | 2.01 |
| GAGGCTCCTTGGGTTCTAACCTGTTGCCC (site GAGGCTCCTTG) | 0.104 |
| CTCCGTACTTGGGTTCTAACCTGTTGCCT (site CTCCGGACTAG) | 0.0835 |
| TCTACCTCTTGGGTTCTAACCTGTTGCCT (site TCTACATCTAG) | 0.0227 |
| AGTCATACTTGGGTTCTAACCTGTTGCCA (site AGTCATACTTG) | 0.355 |
| CTCTAAACTTGGGTTCTAACCTGTTGCGA (site CTCTCAGCTTC) | 0.0639 |
| AGACCATCTTGGGTTCTAACCTGTTGCCT (site AGACCATCTAG) | 0.751 |
| GACATCTCTTGGGTTCTAACCTGTTGCCT (site GACATCCCTAG) | 0.00568 |
| CGTCGACCTTGGGTTCTAACCTGTTGCCT (site AGTCGACCTAG) | 0.092 |
| GTCGGAGCTTGGGTTCTAACCTGTTGCAG (site GTCGGAGCTCT) | 1.89 |
